Reference: patent EP1923473B1, “Bis-diglycolamides (BISDGA) as new extractants for lanthanides [Ln(III)] and actinides [An(III)] from aqueous high-level wastes” (Universidad Autónoma de Madrid, priority 2006, dated 2008)

What was measured:
[1] = Loading capacity (limiting organic concentration); format: physicochemical; settings: 0.2 mol/L in TPH/1-octanol (95:5)%vol; 3 mol/L nitric acid
Method: The organic solutions were prepared and equilibrated with 3 mol/L nitric acid as detailed in the previously described sections A) and B.
Aqueous solutions of 3 mol/L nitric acid, spiked with 600 Bq of ^152Eu and 600 Bq of ^241Am, containing different amounts of stable Eu(III) (0.004 mol/L, 0.008 mol/L, 0.016 mol/L, 0.032 mol/L, 0.064 mol/L and 0.128 mol/L), obtained dissolving the corresponding amount of Eu (NO3)3·6H2O salt in 3 mol/L nitric acid, were prepared.
600 µL of equilibrated organic phase were contacted with 600 µL of aqueous phase of the corresponding concentration of Eu(III). It was stirred vigorously by means of an oscillating shaker for 15 minutes. The phases were separated by centrifugation at 5000 rpm and 400 µL of each of the phases were taken for the determination of the concentration of ^152Eu and ^241Am, as described previously in section C).
The loading capacity was determined according to the limiting organic concentration or LOC, which is the highest concentration of metal admitted by the organic phase before the third phase appears, as a result of the organic phase separating into two phases: a light or less heavy phase formed mainly by the organic solvent and a heavy phase formed by the complex formed by the extractant and the metal. […]

[2] = Batch extraction from simulated HLLW from the PUREX process, gamma spectrometry; format: physicochemical; settings: 0.1 mol/L in TPH/1-octanol (90:10)
From the text: The feed solution used for the extraction tests is a simulated solution of an HLLW from the PUREX process, the composition of which is shown in Table 4. Table 4: Composition of the simulated HLLW-PUREX solution used for the extraction tests
The composition of the HLLW corresponds to a burn-up of 33 GWd/tHM, the generated volume of HLLW being 5000 1/t of fuel. The feed was spiked with ^241Am, ^244Cm, ^252Cf and ^152Eu. Oxalic acid and N-(2-hydroxyethyl)ethylenediaminotriacetate (HEDTA) were also added before the extraction tests.
500 µL of the aqueous and organic phases were spiked with 10 µL of a tracer solution containing 241Am, 244Cm, 252Cf and ^152Eu, and were equilibrated for 10 minutes while they were stirred vigorously in a vortex stirrer. After the separation of the phases by centrifugation, 200 µL aliquots of each phase were taken for the determination of the concentration of ^241Am and ^152Eu using a high-purity germanium spectrometer system (EG&G Ortec). The nuclides ^241Am, ^244Cm and ^252Cf were measured by alpha spectrometry with an α-Analyst device of the company Canberra-Packard GmbH, Germany.
The concentrations of the stable elements were determined by mass spectrometry with an inductively coupled plasma source (ICP-MS) in a DRC Elan 6100 device of Perkin Elmer Sciex. The aqueous phase was measured directly after the appropriate dilution. The organic phase was analyzed after having mineralized the organic matter by microwave acid digestion and subsequent dilution.
The distribution coefficients were calculated for each element according to section C).
A 0.1 mol/L solution of compound 4 in the "TPH/1-octanol (90:10)%vol" mixture was prepared. Extraction experiments were carried out with said simulated HLLW in a pure form and also adding oxalic acid and HEDTA to it. These complexing agents have shown to be effective in the DIAMEX process for the complexing of Mo, Zr (H2C2O4) and Pd (HEDTA).
Extraction experiments were carried out with said simulated HLLW in a pure form and also adding oxalic acid and HEDTA to it.

[3] = Oxalic acid 0.2 mol/L, HEDTA 0.05 mol/L, TBP 0.5 mol/L
[4] = Oxalic acid 0.2 mol/L, HEDTA 0.05 mol/L, TBP No
[5] = Oxalic acid 0.3 mol/L, HEDTA 0.05 mol/L, TBP 0.5 mol/L
[6] = Oxalic acid 0.3 mol/L, HEDTA 0.05 mol/L, TBP No
[7] = Oxalic acid No, HEDTA No, TBP 0.5 mol/L
[8] = Oxalic acid No, HEDTA No, TBP No

For “2-Dioctylcarbamoylmethoxy-N-[3-[3-(2-dioctylcarbamoyl-methoxyacetylamino)propoxy]propyl]acetamide [Compound 18]”, the LOCEu [1] was ~ 0.06 mol/L, the “Distribution coefficients Am-241, γ” value [2, 3] was 70 and the “Distribution coefficients Am-241, γ” value [2, 4] was 100. For the same substance, the “Distribution coefficients Am-241, γ” value [2, 5] was 61, the “Distribution coefficients Am-241, γ” value [2, 6] was 97 and the “Distribution coefficients Am-241, γ” value [2, 7] was 65. The “Distribution coefficients Am-241, γ” value [2, 8] was 96.
In the case of “2-Dioctylcarbamoylmethoxy-N-[3-[(2-dioctylcarbamoyl-methoxy-acetylamino)methyl]benzyl]acetamide [Compound 4]”, the LOCEu [1] is reported as ~ 0.03 mol/L, the “Distribution coefficients Am-241, γ” value [2, 3] is reported as 63 and the “Distribution coefficients Am-241, γ” value [2, 4] is reported as 131. For the same substance, the “Distribution coefficients Am-241, γ” value [2, 5] was 82, the “Distribution coefficients Am-241, γ” value [2, 6] was 141 and the “Distribution coefficients Am-241, γ” value [2, 7] was 70. The “Distribution coefficients Am-241, γ” value [2, 8] was 99.
